Test systems include HOP-62 NSCLC; SF-268 CNS; OVCAR-8 ovarian; NCI-H460 lung; K-562 leukemia; IGROV1 ovarian; COLO 205 colon; SK-MEL-28 melanoma; LOX IMVI melanoma; HL-60(TB) leukemia.
What all share (test): NCI-60 cell line screen, 48 h

“And” between values parts separate entries of the source, which are not always exact repeats. Identical values can stand only once.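 Grown in 96-well plates, cells were treated for 48 hours with each compound at five concentrations. Insufficient inhibition: endpoint recorded as highest concentration tested. GI50 = concentration required for 50% inhibition of growth. TGI denotes the concentration required for complete inhibition of growth.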

In PubChem BioAssay (NCI) one finds TGI and GI50 data, which are given here for eleven molecules.

Consider `Cc1cc(C(=O)CSC(=S)SC(C)(C)C)ccc1Cl`, for which the TGI was 37.4 µM in the assay with HOP-62 NSCLC; 33.1 µM in the assay on SF-268 CNS; greater than 100 µM with OVCAR-8 ovarian; 28.3 µM in the assay on NCI-H460 lung; greater than 100 µM in the assay on K-562 leukemia; greater than 100 µM in the assay on IGROV1 ovarian. Further, the TGI in the assay on COLO 205 colon amounted to 33.1 µM; in the assay on SK-MEL-28 melanoma, 35.6 µM; with LOX IMVI melanoma, 45 µM; in the assay with HL-60(TB) leukemia, 44.1 µM.

For the molecule `CCOC(=O)Cc1csc(Nc2ccccc2[N+](=O)[O-])n1`, the TGI with HOP-62 NSCLC, in the assay on SF-268 CNS, in the assay on OVCAR-8 ovarian, in the assay on NCI-H460 lung, with K-562 leukemia and in the assay with IGROV1 ovarian was greater than 100 µM in each case. The TGI in the assay on COLO 205 colon is greater than 100 µM; in the assay with SK-MEL-28 melanoma, greater than 100 µM; in the assay with LOX IMVI melanoma it was greater than 70.2 µM; in the assay on HL-60(TB) leukemia, greater than 100 µM.

Regarding `Cc1nc2c(N)ncnc2o1`, the TGI in the assay with HOP-62 NSCLC, in the assay on SF-268 CNS, in the assay with OVCAR-8 ovarian, in the assay on NCI-H460 lung, in the assay on K-562 leukemia and in the assay with IGROV1 ovarian was greater than 100 µM in each case. The TGI in the assay on COLO 205 colon, with SK-MEL-28 melanoma, in the assay on LOX IMVI melanoma and in the assay with HL-60(TB) leukemia was greater than 100 µM in each case.

Take `CN(C)CCN1CCC(Cc2ccccc2)CC1`: the GI50 in the assay on HOP-62 NSCLC is greater than 80 µM; in the assay with SF-268 CNS, greater than 80 µM; in the assay with OVCAR-8 ovarian, greater than 80 µM; with NCI-H460 lung it was greater than 80 µM; in the assay with K-562 leukemia, 15.4 µM; with IGROV1 ovarian, greater than 80 µM. The GI50 was greater than 80 µM in the assay with COLO 205 colon, greater than 80 µM in the assay on SK-MEL-28 melanoma, greater than 80 µM in the assay on LOX IMVI melanoma and 26.8 µM with HL-60(TB) leukemia. Besides, the TGI in the assay on HOP-62 NSCLC, with SF-268 CNS, in the assay on OVCAR-8 ovarian, in the assay with NCI-H460 lung, with K-562 leukemia and in the assay with IGROV1 ovarian was greater than 80 µM in each case. The TGI in the assay with COLO 205 colon, in the assay with SK-MEL-28 melanoma, in the assay on LOX IMVI melanoma and in the assay with HL-60(TB) leukemia was greater than 80 µM throughout.

Regarding `O=C1c2cccc3cccc(c23)C(=O)N1CCN(CCO)CCO`, the TGI in the assay with HOP-62 NSCLC was greater than 100 µM; in the assay on SF-268 CNS it was greater than 100 µM; with OVCAR-8 ovarian, 35 µM; in the assay on NCI-H460 lung, 69.9 µM; with K-562 leukemia it was 90.6 µM; with IGROV1 ovarian, greater than 100 µM. Moreover, the TGI with COLO 205 colon was 30.2 µM; in the assay on SK-MEL-28 melanoma, greater than 100 µM; with LOX IMVI melanoma, 34.5 µM; in the assay with HL-60(TB) leukemia, greater than 100 µM.

Take `CCCCCCCCCCCC[N+]12CC[N+](CCN)(CC1)CC2`: the TGI was greater than 100 µM in the assay with HOP-62 NSCLC; greater than 100 µM in the assay with SF-268 CNS; greater than 100 µM with OVCAR-8 ovarian; greater than 100 µM in the assay with NCI-H460 lung; greater than 100 µM in the assay with K-562 leukemia; 39.7 µM in the assay with IGROV1 ovarian. In addition, the TGI with COLO 205 colon, with SK-MEL-28 melanoma, in the assay with LOX IMVI melanoma and in the assay with HL-60(TB) leukemia was greater than 100 µM in each case.

In the case of `c1ccc2c(c1)CCc1c(-c3ccncc3)n[nH]c1-2`, the TGI in the assay on HOP-62 NSCLC is greater than 100 µM; in the assay with SF-268 CNS, greater than 100 µM; in the assay on OVCAR-8 ovarian, 88.6 µM; with NCI-H460 lung, greater than 100 µM; in the assay on K-562 leukemia, greater than 100 µM; in the assay on IGROV1 ovarian it was 89.2 µM. Further, the TGI amounted to 63.3 µM in the assay on COLO 205 colon, 62.8 µM with SK-MEL-28 melanoma, 54.8 µM with LOX IMVI melanoma and 88.8 µM in the assay on HL-60(TB) leukemia.

Consider `C/C(=N\NC(N)=O)c1sc(-c2nc(C)c(/C(C)=N/NC(N)=O)s2)nc1C`, for which the TGI in the assay with HOP-62 NSCLC, with SF-268 CNS, in the assay on OVCAR-8 ovarian, in the assay with NCI-H460 lung, with K-562 leukemia and in the assay on IGROV1 ovarian was greater than 100 µM each time. The TGI in the assay on COLO 205 colon, with SK-MEL-28 melanoma, with LOX IMVI melanoma and with HL-60(TB) leukemia was greater than 100 µM throughout.

For the molecule `O=c1[nH]c(=O)n(C2CC(O)C(CO)O2)cc1OS(=O)(=O)C(F)(F)F` (stereo not given), the TGI in the assay on HOP-62 NSCLC, with SF-268 CNS, with OVCAR-8 ovarian, with NCI-H460 lung, in the assay with K-562 leukemia and with IGROV1 ovarian was greater than 100 µM throughout. The TGI in the assay on COLO 205 colon, in the assay with SK-MEL-28 melanoma, in the assay on LOX IMVI melanoma and in the assay with HL-60(TB) leukemia was greater than 100 µM each time.

As to `NC(=O)c1cc(I)ccc1NC(=O)/C=C/c1ccccc1`, the GI50 is 1.12 µM in the assay with HOP-62 NSCLC; 1.4 µM in the assay with SF-268 CNS; 1.18 µM in the assay on OVCAR-8 ovarian; 0.417 µM in the assay with NCI-H460 lung; 0.668 µM in the assay with K-562 leukemia; 0.917 µM with IGROV1 ovarian. In addition, the GI50 in the assay on COLO 205 colon is 0.318 µM; in the assay on SK-MEL-28 melanoma, 1.17 µM; in the assay with LOX IMVI melanoma, 3.18 µM; with HL-60(TB) leukemia it was 0.13 µM. The TGI with HOP-62 NSCLC was 23.8 µM; with SF-268 CNS, 23.7 µM; in the assay on OVCAR-8 ovarian it was 27.8 µM; with NCI-H460 lung, 3.44 µM; in the assay on K-562 leukemia, greater than 100 µM; with IGROV1 ovarian, 19.9 µM. Besides, the TGI with COLO 205 colon was 1.24 µM; in the assay on SK-MEL-28 melanoma, greater than 86.8 µM; in the assay on LOX IMVI melanoma it was greater than 100 µM; in the assay on HL-60(TB) leukemia it was 0.912 µM.

Regarding `NC(=S)N/N=C/c1ncccc1O`, the GI50 in the assay on HOP-62 NSCLC was 2.6 µM; in the assay on SF-268 CNS, 2.88 µM and 0.736 µM; in the assay with OVCAR-8 ovarian, 2.58 µM and 0.813 µM; in the assay on NCI-H460 lung, 3.17 µM; in the assay on K-562 leukemia, 2.92 µM; in the assay on IGROV1 ovarian, 2.88 µM. For the same molecule, the GI50 in the assay on COLO 205 colon was 3.48 µM; with SK-MEL-28 melanoma it was 5.86 µM; in the assay with LOX IMVI melanoma, 5.29 µM; in the assay with HL-60(TB) leukemia, 1.27 µM and 0.477 µM. Further, the TGI with HOP-62 NSCLC is 11.1 µM and 16.7 µM; in the assay with SF-268 CNS, 29.6 µM and 89.4 µM; in the assay on OVCAR-8 ovarian, > 72.2 µM and 135 µM; with NCI-H460 lung, 48.5 µM and 25.2 µM; in the assay on K-562 leukemia, greater than 1000 µM; with IGROV1 ovarian it was > 96.7 µM and 380 µM. The TGI is greater than 431 µM in the assay on COLO 205 colon; greater than 1000 µM in the assay on SK-MEL-28 melanoma; 98.7 µM and 54.6 µM with LOX IMVI melanoma; 3.6 µM and 3.59 µM in the assay with HL-60(TB) leukemia.
